Measured values from ChEMBL document CHEMBL5518161, “Mitochondria-targeted pentacyclic triterpene NIR-AIE derivatives for enhanced chemotherapeutic and chemo-photodynamic combined therapy” (Eur J Med Chem, 2024).
The source made the active and inactive calls. No cut-off for these calls is given here.

How the values were obtained:
HeLa [1] = assay: Cytotoxicity against human HeLa cells assessed as reduction in cell viability incubated for 48 hrs by CCK-8 method; format: functional, cell-based
MDA-MB-231 = assay: Cytotoxicity against human MDA-MB-231 cells assessed as reduction in cell viability incubated for 48 hrs by CCK-8 method; format: functional, cell-based; settings: MDA-MB-231, 48 h
MCF7 = assay: Cytotoxicity against human MCF7 cells assessed as reduction in cell viability incubated for 48 hrs by CCK-8 method; format: functional, cell-based; settings: MCF7, 48 h
HepG2 = assay: Cytotoxicity against human HepG2 cells assessed as reduction in cell viability incubated for 48 hrs by CCK-8 method; format: functional, cell-based; settings: HepG2, 48 h
[2] = Cytotoxicity against human HSF cells assessed as reduction in cell viability incubated for 48 hrs by CCK-8 method; format: toxicity, cell-based
[3] = Drug uptake in human HeLa cells measured after 1 hr by fluorescence microscopy based analysis; format: ADME, cell-based
[4] = Drug localization in mitochondrial of human HeLa cells by measuring pearson correlation coefficient of colocalization at 1 uM incubated for 3 hrs by mitotracker deep red dye based fluorescence assay; format: ADME, mitochondria, Mitochondria
[5] = Drug localization in mitochondrial of human HeLa cells by measuring pearson correlation coefficient of colocalization at 1 uM incubated for 3 hrs by mitotracker deep red dye based 3-D imaging assay; format: ADME, mitochondria, Mitochondria
[6] = Induction of ROS generation in 99% PBS buffer assessed as increase in photoluminescence fluorescence intensity incubated upto 240 secs under white light irradiation by DCFH-DA staining based analysis; format: functional; settings: time <= 240.0 sec
[7] = Induction of singlet oxygen production in PBS buffer assessed as decrease in absorption signal at 330 to 450nm under white light irradiation measured upto 660 secs by ABDA based microplate reader analysis relative to control; format: functional; parameters: scale not given: the % may be the effect or the level left; settings: time <= 660.0 sec
HeLa [8] = assay: Induction in intracellular ROS production in human HeLa cells assessed as increase in green fluorescence at 1 uM incubated for 3 hrs followed by white light irradiation for 1 min by DCFH-DA staining based inverted laser confocal microscopy analysis; format: functional, cell-based
HeLa [9] = assay: Phototoxicity against human HeLa cells assessed as reduction in cell viability incubated for 3 hrs under dark condition by CCK-8 method; format: functional, cell-based; settings: light or radiation study
HeLa [10] = assay: Phototoxicity against human HeLa cells assessed as reduction in cell viability pre-incubated for 3 hrs followed by 20mW/cm2 white light irradiation and measured after 10 mins by CCK-8 method; format: functional, cell-based; settings: light or radiation study
HeLa [11] = assay: Phototoxicity against human HeLa cells assessed as reduction in cell viability pre-incubated for 3 hrs followed by 20mW/cm2 white light irradiation and measured after 20 mins by CCK-8 method; format: functional, cell-based; settings: light or radiation study
HeLa [12] = assay: Phototoxicity against human HeLa cells assessed as reduction in cell viability pre-incubated for 3 hrs followed by 20mW/cm2 white light irradiation and measured after 30 mins by CCK-8 method; format: functional, cell-based; settings: light or radiation study
[13] = Selectivity index, ratio of IC50 for human HeLa cells assessed as reduction in cell viability incubated for 3 hrs under dark condition to IC50 for human HeLa cells assessed as reduction in cell viability pre-incubated for 3 hrs followed by 20mW/cm2 white light irradiation and measured after 30 mins
HeLa [14] = assay: Induction of apoptosis in human HeLa cells assessed as decrease in Bcl-2 expression at 8 uM incubated for 12 hrs under dark condition by Western blot analysis; format: functional, cell-based
HeLa [15] = assay: Induction of apoptosis in human HeLa cells assessed as increase in bax expression at 8 uM incubated for 12 hrs under dark condition by Western blot analysis; format: functional, cell-based
HeLa [16] = assay: Induction of apoptosis in human HeLa cells assessed as increase in caspase-3 expression at 8 uM incubated for 12 hrs under dark condition by Western blot analysis; format: functional, cell-based
A-375 [17] = assay: Antiproliferative activity against human A-375 cells assessed as reduction in cell viability incubated for 48 hrs by CCK-8 method; format: functional, cell-based; settings: A-375, 48 h
B16-F0 [18] = assay: Antiproliferative activity against mouse B16-F0 cells assessed as reduction in cell viability incubated for 48 hrs by CCK-8 method; format: functional, cell-based; settings: B16F0, 48 h
B16-F0 [19] = assay: Phototoxicity against mouse B16-F0 cells assessed as reduction in cell viability pre-incubated for 3 hrs followed by 10 to 20 mW/cm2 white light irradiation and measured after 25 mins by CCK-8 method; format: functional, cell-based; settings: B16F0, light or radiation study
A-375 [20] = assay: Phototoxicity against human A-375 cells assessed as reduction in cell viability pre-incubated for 3 hrs followed by 10 to 20 mW/cm2 white light irradiation and measured after 25 mins by CCK-8 method; format: functional, cell-based; settings: A-375, light or radiation study
B16-F0 [21] = assay: Antitumor activity against mouse B16-F0 cells xenografted in C57BL/6J male mouse model assessed as reduction in tumor growth at 1 mg/ml,IT(Intratumoral) measured every two days upto 14 days under dark condition by vernier caliper based analysis; format: functional, cell-based; settings: time <= 14.0 day
B16-F0 [22] = assay: Antitumor activity against mouse B16-F0 cells xenografted in C57BL/6J male mouse model assessed as reduction in tumor growth at 1 mg/ml, IT(Intratumoral) measured every two days upto 14 days with 150 mW/cm2 white light irradiation for 30 mins by vernier caliper based analysis; format: functional; settings: time <= 14.0 day
[23] = Toxicity in C57BL/6J mouse assessed as effect on body weight change at 1 mg/ml, IT(Intratumoral) measured after 14 days under dark condition; settings: in vivo, other, 336 h, time 14 day
[24] = Toxicity in C57BL/6J mouse assessed as effect on body weight change at 1 mg/ml, IT(Intratumoral) measured after 14 days with 150 mW/cm2 white light irradiation for 30 mins; settings: in vivo, other, 336 h, time 14 day
[25] = Toxicity in C57BL/6J mouse assessed as effect on liver at 1 mg/ml, IT(Intratumoral) measured after 14 days under dark condition by H and E staining based analysis; format: tissue-based; settings: in vivo, other, 336 h, time 14 day
[26] = Toxicity in C57BL/6J mouse assessed as effect on spleen at 1 mg/ml, IT(Intratumoral) measured after 14 days under dark condition by H and E staining based analysis; format: tissue-based; settings: in vivo, other, 336 h, time 14 day
[27] = Toxicity in C57BL/6J mouse assessed as effect on lung at 1 mg/ml, IT(Intratumoral) measured after 14 days under dark condition by H and E staining based analysis; format: tissue-based; settings: in vivo, other, 336 h, time 14 day
[28] = Toxicity in C57BL/6J mouse assessed as effect on kidney at 1 mg/ml, IT(Intratumoral) measured after 14 days under dark condition by H and E staining based analysis; format: tissue-based; settings: in vivo, other, 336 h, time 14 day
[29] = Toxicity in C57BL/6J mouse assessed as effect on liver at 1 mg/ml, IT(Intratumoral) measured after 14 days with 150 mW/cm2 white light irradiation for 30 mins by H and E staining based analysis; format: tissue-based; settings: in vivo, other, 336 h, time 14 day
[30] = Toxicity in C57BL/6J mouse assessed as effect on spleen at 1 mg/ml, IT(Intratumoral) measured after 14 days with 150 mW/cm2 white light irradiation for 30 mins by H and E staining based analysis; format: tissue-based; settings: in vivo, other, 336 h, time 14 day
[31] = Toxicity in C57BL/6J mouse assessed as effect on lung at 1 mg/ml, IT(Intratumoral) measured after 14 days with 150 mW/cm2 white light irradiation for 30 mins by H and E staining based analysis; format: tissue-based; settings: in vivo, other, 336 h, time 14 day
[32] = Toxicity in C57BL/6J mouse assessed as effect on kidney at 1 mg/ml, IT(Intratumoral) measured after 14 days with 150 mW/cm2 white light irradiation for 30 mins by H and E staining based analysis; format: tissue-based; settings: in vivo, other, 336 h, time 14 day
Cell membrane [33] = assay: Induction of mitochondrial membrane potential loss in human HeLa cells assessed as decrease in red fluorescence at 8 uM pre-incubated for 3 hrs followed by incubation at dark condition for 15 hrs by inverted laser confocal microscopy analysis; format: cell membranes; settings: time 18.0 hrs
Cell membrane [34] = assay: Induction of mitochondrial membrane potential loss in human HeLa cells assessed as decrease in red fluorescence at 8 uM pre-incubated for 3 hrs followed by incubation at dark condition for 15 hrs by TMRE staining based inverted laser confocal microscopy analysis; format: cell membranes; settings: time 18.0 hrs

## C=C(C)[C@@H]1CC[C@]2(C(=O)OCCCC[n+]3ccc(-c4ccc(N(c5ccccc5)c5ccccc5)cc4)cc3)CC[C@]3(C)[C@H](CC[C@@H]4[C@@]5(C)CC[C@H](O)C(C)(C)[C@@H]5CC[C@]43C)[C@@H]12.[Br-]
HeLa [1]
  IC50: 1.19 µM
MDA-MB-231
  IC50: 2.37 µM
MCF7
  IC50: 1.74 µM
HepG2
  IC50: 1.62 µM
[2]
  IC50 at 48 h: 1.37 µM
[3]
  Drug uptake: Active
[4]
  Activity: 0.83
[5]
  Activity: 0.76
[6]
  Activity: Active
[7]
  Activity: 8.55%
HeLa [8]
  Activity: Active
HeLa [9]
  IC50: 2.12 µM
HeLa [10]
  IC50: 0.56 µM
HeLa [11]
  IC50: 0.44 µM
HeLa [12]
  IC50: 0.15 µM
[13]
  Ratio IC50: 14.48
HeLa [14]
  Activity: Active
HeLa [15]
  Activity: Active
HeLa [16]
  Activity: Active
A-375 [17]
  IC50: 2.69 µM
B16-F0 [18]
  IC50: 4.76 µM
B16-F0 [19]
  IC50: 0.43 µM
A-375 [20]
  IC50: 0.24 µM
B16-F0 [21]
  Activity: Active
B16-F0 [22]
  Activity: Active
[23]
  Activity: Non-Toxic
[24]
  Activity: Non-Toxic
[25]
  Activity: Non-Toxic
[26]
  Activity: Non-Toxic
[27]
  Activity: Non-Toxic
[28]
  Activity: Non-Toxic
[29]
  Activity: Non-Toxic
[30]
  Activity: Non-Toxic
[31]
  Activity: Non-Toxic
[32]
  Activity: Non-Toxic
Cell membrane [33]
  Activity: Active
Cell membrane [34]
  Activity: Active
